The supplement of paper PMC11579375

Tests used:
Experiment in all cases: area under the viability dose-response curve (AUC) (AUC (arbitrary units, max 500 = no viability loss)); higher = less sensitive (higher viability)
Conditions in all cases: exposure time: 120 h; concentration range: 0.1 nM - 10 µM, 6 doses
22E = system: 22E (embryonal-type hepatoblastoma organoid)
Description: (§1)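 Patient-derived hepatoblastoma tumor organoids (about 50 organoids per well, 384-well plates, medium with 5% BME) were treated with the PMC pediatric cancer drug library. Each drug was tested in duplicate at 6 concentrations (0.1 nM to 10 µM, 10-fold steps).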

135F2 = system: 135F2 (fetal-II hepatoblastoma organoid with high liver markers)
Description: as §1

3E = system: 3E (embryonal-type hepatoblastoma organoid)
Description: as §1

13F2 = system: 13F2 (fetal-II hepatoblastoma organoid with high liver markers)
Description: as §1

10F2 = system: 10F2 (fetal-II hepatoblastoma organoid with high liver markers)
Description: as §1

27F1 = system: 27F1 (fetal-I hepatoblastoma organoid with intermediate liver markers)
Description: as §1

8F1 = system: 8F1 (fetal-I hepatoblastoma organoid with intermediate liver markers)
Description: as §1

17F1 = system: 17F1 (fetal-I hepatoblastoma organoid with intermediate liver markers)
Description: as §1

13E = system: 13E (embryonal-type hepatoblastoma organoid)
Description: as §1

96F1 = system: 96F1 (fetal-I hepatoblastoma organoid with intermediate liver markers)
Description: as §1

17E = system: 17E (embryonal-type hepatoblastoma organoid)
Description: as §1

CO[C@H]1/C=C/C[C@H](C)[C@@H](C)S(=O)(=O)NC(=O)c2ccc3c(c2)N(C[C@@H]2CC[C@H]21)C[C@@]1(CCCc2cc(Cl)ccc21)CO3 [AMG-176]
area under the viability dose-response curve (22E): 454 | area under the viability dose-response curve (135F2): 431 | area under the viability dose-response curve (3E): 369 | area under the viability dose-response curve (13F2): 344 | area under the viability dose-response curve (10F2): 274 | area under the viability dose-response curve (27F1): 450 | area under the viability dose-response curve (8F1): 475 | area under the viability dose-response curve (17F1): 481 | area under the viability dose-response curve (13E): 421 | area under the viability dose-response curve (96F1): 488 | area under the viability dose-response curve (17E): 434

O=C(NC1CCNCC1)c1n[nH]cc1NC(=O)c1c(Cl)cccc1Cl [AT7519]
area under the viability dose-response curve (22E): 371 | area under the viability dose-response curve (135F2): 396 | area under the viability dose-response curve (3E): 332 | area under the viability dose-response curve (13F2): 361 | area under the viability dose-response curve (10F2): 378 | area under the viability dose-response curve (27F1): 456 | area under the viability dose-response curve (8F1): 381 | area under the viability dose-response curve (17F1): 381 | area under the viability dose-response curve (13E): 348 | area under the viability dose-response curve (96F1): 387 | area under the viability dose-response curve (17E): 406

COc1cc(CCc2cc(NC(=O)c3ccc(N4CC(C)NC(C)C4)cc3)n[nH]2)cc(OC)c1 (stereo unspecified) [AZD4547]
area under the viability dose-response curve (22E): 370 | area under the viability dose-response curve (135F2): 471 | area under the viability dose-response curve (3E): 308 | area under the viability dose-response curve (13F2): 376 | area under the viability dose-response curve (10F2): 476 | area under the viability dose-response curve (27F1): > 500 | area under the viability dose-response curve (8F1): > 500 | area under the viability dose-response curve (17F1): 480 | area under the viability dose-response curve (13E): 375 | area under the viability dose-response curve (96F1): 475 | area under the viability dose-response curve (17E): 338

CN[C@@H](C)C(=O)N[C@H](C(=O)N1CCC[C@H]1C(=O)N[C@H]1c2ccccc2C[C@H]1OCC#CC#CCO[C@@H]1Cc2ccccc2[C@@H]1NC(=O)[C@@H]1CCCN1C(=O)[C@@H](NC(=O)[C@H](C)NC)C1CCCCC1)C1CCCCC1 [AZD5582]
area under the viability dose-response curve (22E): 82.8 | area under the viability dose-response curve (135F2): 483 | area under the viability dose-response curve (3E): 148 | area under the viability dose-response curve (13F2): 470 | area under the viability dose-response curve (10F2): 321 | area under the viability dose-response curve (27F1): 394 | area under the viability dose-response curve (8F1): 414 | area under the viability dose-response curve (17F1): 446 | area under the viability dose-response curve (13E): 424 | area under the viability dose-response curve (96F1): 458 | area under the viability dose-response curve (17E): 473

Cc1c2c(nn1C)CSCc1cc(n(C)n1)CSc1cc(c3ccccc3c1)OCCCc1c(C(=O)O)n(C)c3c-2c(Cl)ccc13 [AZD5991]
area under the viability dose-response curve (22E): 400 | area under the viability dose-response curve (135F2): 379 | area under the viability dose-response curve (3E): 310 | area under the viability dose-response curve (13F2): 277 | area under the viability dose-response curve (10F2): 190 | area under the viability dose-response curve (27F1): 473 | area under the viability dose-response curve (8F1): 484 | area under the viability dose-response curve (17F1): 482 | area under the viability dose-response curve (13E): 403 | area under the viability dose-response curve (96F1): > 500 | area under the viability dose-response curve (17E): 370

COc1ccc(-c2ccc3c(N4CCOC[C@@H]4C)nc(N4CCOC[C@@H]4C)nc3n2)cc1CO [AZD8055]
area under the viability dose-response curve (22E): 396 | area under the viability dose-response curve (135F2): 342 | area under the viability dose-response curve (3E): 316 | area under the viability dose-response curve (13F2): 278 | area under the viability dose-response curve (10F2): 259 | area under the viability dose-response curve (27F1): 468 | area under the viability dose-response curve (8F1): 466 | area under the viability dose-response curve (17F1): 456 | area under the viability dose-response curve (13E): 366 | area under the viability dose-response curve (96F1): 445 | area under the viability dose-response curve (17E): 331

CCN1CCN(Cc2ccc(Nc3ncc(F)c(-c4cc(F)c5nc(C)n(C(C)C)c5c4)n3)nc2)CC1 [Abemaciclib]
area under the viability dose-response curve (22E): 395 | area under the viability dose-response curve (135F2): 360 | area under the viability dose-response curve (3E): 264 | area under the viability dose-response curve (13F2): 314 | area under the viability dose-response curve (10F2): 314 | area under the viability dose-response curve (27F1): 402 | area under the viability dose-response curve (8F1): 448 | area under the viability dose-response curve (17F1): 452 | area under the viability dose-response curve (13E): 408 | area under the viability dose-response curve (96F1): 411 | area under the viability dose-response curve (17E): 284

C=CCn1c(=O)c2cnc(Nc3ccc(N4CCN(C)CC4)cc3)nc2n1-c1cccc(C(C)(C)O)n1 [Adavosertib]
area under the viability dose-response curve (22E): 423 | area under the viability dose-response curve (135F2): 353 | area under the viability dose-response curve (3E): 335 | area under the viability dose-response curve (13F2): 354 | area under the viability dose-response curve (10F2): 328 | area under the viability dose-response curve (27F1): 386 | area under the viability dose-response curve (8F1): 438 | area under the viability dose-response curve (17F1): 383 | area under the viability dose-response curve (13E): 404 | area under the viability dose-response curve (96F1): 361 | area under the viability dose-response curve (17E): 336

CN(C)C/C=C/C(=O)Nc1cc2c(Nc3ccc(F)c(Cl)c3)ncnc2cc1O[C@H]1CCOC1 [Afatinib]
area under the viability dose-response curve (22E): 489 | area under the viability dose-response curve (135F2): 442 | area under the viability dose-response curve (3E): 456 | area under the viability dose-response curve (13F2): 271 | area under the viability dose-response curve (10F2): 253 | area under the viability dose-response curve (27F1): 342 | area under the viability dose-response curve (8F1): 493 | area under the viability dose-response curve (17F1): 408 | area under the viability dose-response curve (13E): 472 | area under the viability dose-response curve (96F1): 352 | area under the viability dose-response curve (17E): 491

CCc1cc2c(cc1N1CCC(N3CCOCC3)CC1)C(C)(C)c1[nH]c3cc(C#N)ccc3c1C2=O [Alectinib]
area under the viability dose-response curve (22E): 479 | area under the viability dose-response curve (135F2): 499 | area under the viability dose-response curve (3E): 452 | area under the viability dose-response curve (13F2): 473 | area under the viability dose-response curve (10F2): > 500 | area under the viability dose-response curve (27F1): > 500 | area under the viability dose-response curve (8F1): 496 | area under the viability dose-response curve (17F1): 499 | area under the viability dose-response curve (13E): 498 | area under the viability dose-response curve (96F1): > 500 | area under the viability dose-response curve (17E): > 500

COc1cc(Nc2ncc3c(n2)-c2ccc(Cl)cc2C(c2c(F)cccc2OC)=NC3)ccc1C(=O)O [Alisertib]
area under the viability dose-response curve (22E): 382 | area under the viability dose-response curve (135F2): 369 | area under the viability dose-response curve (3E): 328 | area under the viability dose-response curve (13F2): 310 | area under the viability dose-response curve (10F2): 325 | area under the viability dose-response curve (27F1): 436 | area under the viability dose-response curve (8F1): 473 | area under the viability dose-response curve (17F1): 494 | area under the viability dose-response curve (13E): 381 | area under the viability dose-response curve (96F1): 416 | area under the viability dose-response curve (17E): 339

O=C(/C=C/c1cccc(S(=O)(=O)Nc2ccccc2)c1)NO [Belinostat]
area under the viability dose-response curve (22E): 425 | area under the viability dose-response curve (135F2): 386 | area under the viability dose-response curve (3E): 355 | area under the viability dose-response curve (13F2): 359 | area under the viability dose-response curve (10F2): 365 | area under the viability dose-response curve (27F1): 418 | area under the viability dose-response curve (8F1): 434 | area under the viability dose-response curve (17F1): 437 | area under the viability dose-response curve (13E): 401 | area under the viability dose-response curve (96F1): 409 | area under the viability dose-response curve (17E): 367

Cc1ccc2c(Nc3cccc(Cl)c3F)nccc2c1NC(=O)c1csc2c(N)ncnc12 [Belvarafenib]
area under the viability dose-response curve (22E): 474 | area under the viability dose-response curve (135F2): 389 | area under the viability dose-response curve (3E): 497 | area under the viability dose-response curve (13F2): 407 | area under the viability dose-response curve (10F2): 334 | area under the viability dose-response curve (27F1): 484 | area under the viability dose-response curve (8F1): > 500 | area under the viability dose-response curve (17F1): > 500 | area under the viability dose-response curve (13E): > 500 | area under the viability dose-response curve (96F1): > 500 | area under the viability dose-response curve (17E): 499

CNCc1ccc(-c2cc(-c3nc(-c4ccc(S(=O)(=O)C(C)C)cc4)cnc3N)on2)cc1 [Berzosertib]
area under the viability dose-response curve (22E): 473 | area under the viability dose-response curve (135F2): 391 | area under the viability dose-response curve (3E): 391 | area under the viability dose-response curve (13F2): 401 | area under the viability dose-response curve (10F2): 411 | area under the viability dose-response curve (27F1): 498 | area under the viability dose-response curve (8F1): 499 | area under the viability dose-response curve (17F1): > 500 | area under the viability dose-response curve (13E): 461 | area under the viability dose-response curve (96F1): 459 | area under the viability dose-response curve (17E): 444

Cn1cnc2c(F)c(Nc3ccc(Br)cc3F)c(C(=O)NOCCO)cc21 [Binimetinib]
area under the viability dose-response curve (22E): 489 | area under the viability dose-response curve (135F2): 396 | area under the viability dose-response curve (3E): > 500 | area under the viability dose-response curve (13F2): 379 | area under the viability dose-response curve (10F2): 343 | area under the viability dose-response curve (27F1): 499 | area under the viability dose-response curve (8F1): > 500 | area under the viability dose-response curve (17F1): 458 | area under the viability dose-response curve (13E): 490 | area under the viability dose-response curve (96F1): 481 | area under the viability dose-response curve (17E): 424

Cc1sc2c(c1C)C(c1ccc(Cl)cc1)=N[C@@H](CC(=O)Nc1ccc(O)cc1)c1nnc(C)n1-2 [Birabresib]
area under the viability dose-response curve (22E): 399 | area under the viability dose-response curve (135F2): 354 | area under the viability dose-response curve (3E): 358 | area under the viability dose-response curve (13F2): 318 | area under the viability dose-response curve (10F2): 390 | area under the viability dose-response curve (27F1): 482 | area under the viability dose-response curve (8F1): 473 | area under the viability dose-response curve (17F1): 461 | area under the viability dose-response curve (13E): 410 | area under the viability dose-response curve (96F1): 478 | area under the viability dose-response curve (17E): 395
